target: PRMT5:MEP50 (Homo sapiens, UniProt O14744); assay: PRMT5:MEP50 Flashplate Assay; assay type: biochemical; conditions: PRMT5:MEP50 inhibitory activity; 3H-SAM, 2 h at room temperature, top concentration 10 μM
Description: PRMT5:MEP50 Flashplate Assay:
Ten-point curves of inhibitor compounds were made using serial threefold dilutions in DMSO (the final top concentration of compound was 10 μM, 1% DMSO). Reaction mixture consisting of 50 mM Tris-HCl (pH 8.5), 0.002% Tween 20, 0.005% BSA (Bovine Serum Albumin), 1 mM TCEP, and 1% DMSO. Substrates are freshly prepared in reaction buffer. PRMT5:MEP50 was then added into substrate solution and mixed gently. Inhibitor compound was then added and incubated for 30 min at room temperature. ^3H-SAM was added to initiate the reaction. Reactions were incubated for 2 h at room temperature and quenched with 0.5 mM SAM (S-adenosyl-L-Methionine) in assay buffer. An aliquot of the reaction mix was transferred to a streptavidin-coated 384-well FlashPlate (PerkinElmer). After an incubation time of 1 h, the plate was washed and then read on a TopCount (PerkinElmer) to measure the amount of tritium incorporated into the peptide substrate. IC50 was calculated using conventional curve-fitting method.

Chain of PRMT5:MEP50 (O14744 whole entry, species assumed): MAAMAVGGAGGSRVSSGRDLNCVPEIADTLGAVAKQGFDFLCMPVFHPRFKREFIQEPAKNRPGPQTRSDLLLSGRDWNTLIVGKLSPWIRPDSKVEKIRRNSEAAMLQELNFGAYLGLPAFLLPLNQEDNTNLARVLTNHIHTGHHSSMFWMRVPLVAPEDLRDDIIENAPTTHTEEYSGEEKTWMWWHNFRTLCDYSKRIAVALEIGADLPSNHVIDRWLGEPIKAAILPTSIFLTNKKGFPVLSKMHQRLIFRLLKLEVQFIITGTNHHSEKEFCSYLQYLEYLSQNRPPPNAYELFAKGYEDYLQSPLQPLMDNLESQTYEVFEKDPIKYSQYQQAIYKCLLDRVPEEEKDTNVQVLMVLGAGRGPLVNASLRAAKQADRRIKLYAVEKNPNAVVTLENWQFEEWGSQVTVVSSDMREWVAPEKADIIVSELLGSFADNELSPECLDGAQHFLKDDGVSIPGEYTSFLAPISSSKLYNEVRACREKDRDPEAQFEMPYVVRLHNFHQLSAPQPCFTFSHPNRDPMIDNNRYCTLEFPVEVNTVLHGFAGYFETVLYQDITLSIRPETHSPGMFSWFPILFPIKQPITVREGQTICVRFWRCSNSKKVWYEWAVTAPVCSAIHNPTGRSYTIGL
Chain of PRMT5:MEP50 (Q9BQA1 whole entry partner, species assumed): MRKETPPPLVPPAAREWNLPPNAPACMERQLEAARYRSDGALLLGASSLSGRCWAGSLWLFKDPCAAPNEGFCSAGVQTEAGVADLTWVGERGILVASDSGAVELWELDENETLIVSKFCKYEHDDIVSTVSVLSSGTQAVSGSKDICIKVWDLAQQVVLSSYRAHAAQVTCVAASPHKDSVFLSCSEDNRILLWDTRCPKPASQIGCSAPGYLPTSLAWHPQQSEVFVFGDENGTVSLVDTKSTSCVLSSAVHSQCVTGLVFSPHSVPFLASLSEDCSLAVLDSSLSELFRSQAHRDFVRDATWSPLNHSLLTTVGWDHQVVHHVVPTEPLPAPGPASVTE

SMILES	IC50 [nM]
C[C@H]1Cc2cc3ccc(CC[C@H]4C[C@@H](n5ccc6c(N)ncnc65)[C@H](O)[C@@H]4O)cc3nc2N1 [Compound 1-20, (1R,2S,3R,5S)-3-(4-amino-7H-pyrrolo[2,3-d]pyrimidin-7-yl)-5-(2-((S)-2-methyl-2,3-dihydro-1H-pyrrolo[2,3-b]quinolin-7-yl)ethyl)cyclopentane-1,2-diol]	< 1
CC1(C)Cc2cc3ccc(CC[C@H]4C[C@@H](n5ccc6c(N)ncnc65)[C@H](O)[C@@H]4O)cc3nc2N1 [Compound 1-30, (1R,2S,3R,5S)-3-(4-amino-7H-pyrrolo[2,3-d]pyrimidin-7-yl)-5-(2-(2,2-dimethyl-2,3-dihydro-1H-pyrrolo[2,3-b]quinolin-7-yl)ethyl)cyclopentane-1,2-diol]	< 1
Nc1ncnc2c1ccn2[C@@H]1C[C@H](CCc2ccc3cc4nn[nH]c4nc3c2)[C@@H](O)[C@H]1O [Compound 1-19, (1S,2R,3S,5R)-3-(2-(3H-[1,2,3]triazolo[4,5-b]quinolin-6-yl)ethyl)-5-(4-amino-7H-pyrrolo[2,3-d]pyrimidin-7-yl)cyclopentane-1,2-diol]	1 to 100
Cn1[nH]c2nc3cc(CC[C@H]4C[C@@H](n5ccc6c(N)ncnc65)[C@H](O)[C@@H]4O)ccc3cc2c1=O [Compound 1-34, 7-(2-((1S,2R,3S,4R)-4-(4-amino-7H-pyrrolo[2,3-d]pyrimidin-7-yl)-2,3-dihydroxycyclopentyl)ethyl)-2-methyl-1,2-dihydro-3H-pyrazolo[3,4-b]quinolin-3-one]	> 100
NC1=Nc2cc(CC[C@H]3O[C@@H](n4ccc5c(N)ncnc54)[C@H](O)[C@@H]3O)ccc2C2=NCCN12 [Compound 3-10, (2R,3S,4R,5R)-2-(2-(5-amino-2,3-dihydroimidazo[1,2-c]quinazolin-8-yl)ethyl)-5-(4-amino-7H-pyrrolo[2,3-d]pyrimidin-7-yl)tetrahydrofuran-3,4-diol]	< 1
Nc1ncnc2c1ccn2[C@@H]1C[C@H](CCc2ccc3cc4c(nc3c2)NCCC4)[C@@H](O)[C@H]1O [Compound 1-35, (1R,2S,3R,5S)-3-(4-amino-7H-pyrrolo[2,3-d]pyrimidin-7-yl)-5-(2-(1,2,3,4-tetrahydrobenzo[b][1,8]naphthyridin-8-yl)ethyl)cyclopentane-1,2-diol]	< 1
CC(C)[C@@H]1Cc2cc3ccc(CC[C@H]4C[C@@H](n5ccc6c(N)ncnc65)[C@H](O)[C@@H]4O)cc3nc2N1 [Compound 1-25, (1R,2S,3R,5S)-3-(4-amino-7H-pyrrolo[2,3-d]pyrimidin-7-yl)-5-(2-((S)-2-isopropyl-2,3-dihydro-1H-pyrrolo[2,3-b]quinolin-7-yl)ethyl)cyclopentane-1,2-diol]	< 1
Nc1ncnc2c1ccn2[C@@H]1O[C@H](CCc2ccc3c(c2)nc(N)n2ccnc32)[C@@H](O)[C@H]1O [Compound 3-11, (2R,3R,4S,5R)-2-(4-amino-7H-pyrrolo[2,3-d]pyrimidin-7-yl)-5-(2-(5-aminoimidazo-[1,2-c]quinazolin-8-yl)ethyl)tetrahydrofuran-3,4-diol]	1 to 100
Nc1ncnc2c1ccn2[C@@H]1C[C@H](CCc2ccc3cc4cc[nH]c4nc3c2)[C@@H](O)[C@H]1O [Compound 4-3, (1S,2R,3S,5R)-3-(2-(1H-pyrrolo[2,3-b]quinolin-7-yl)ethyl)-5-(4-amino-7H-pyrrolo[2,3-d]pyrimidin-7-yl)cyclopentane-1,2-diol]	1 to 100
Nc1ncnc2c1ccn2[C@@H]1C[C@H](CCc2ccc3cc4nc[nH]c4nc3c2)[C@@H](O)[C@H]1O [Compound 1-18, (1S,2R,3S,5R)-3-(2-(3H-imidazo[4,5-b]quinolin-6-yl)ethyl)-5-(4-amino-7H-pyrrolo[2,3-d]pyrimidin-7-yl)cyclopentane-1,2-diol]	< 1
Nc1ncnc2c1ccn2[C@@H]1C[C@H](CCc2ccc3cc4c(nc3c2)N[C@H](c2ccccc2)C4)[C@@H](O)[C@H]1O [Compound 1-28, (1R,2S,3R,5S)-3-(4-amino-7H-pyrrolo[2,3-d]pyrimidin-7-yl)-5-(2-((S)-2-phenyl-2,3-dihydro-1H-pyrrolo[2,3-b]quinolin-7-yl)ethyl)cyclopentane-1,2-diol]	1 to 100
C[C@@H]1Cc2cc3ccc(CC[C@H]4C[C@@H](n5ccc6c(N)ncnc65)[C@H](O)[C@@H]4O)cc3nc2NO1 [Compound 1-16, (1R,2S,3R,5S)-3-(4-amino-7H-pyrrolo[2,3-d]pyrimidin-7-yl)-5-(2-((R)-3-methyl-3,4-dihydro-1H-[1,2]oxazino[3,4-b]quinolin-8-yl)ethyl)cyclopentane-1,2-diol]	< 1
Nc1ncnc2c1ccn2[C@@H]1C[C@H](CCc2ccc3cc4c(nc3c2)NOC4)[C@@H](O)[C@H]1O [Compound 1-14, (1R,2S,3R,5S)-3-(4-amino-7H-pyrrolo[2,3-d]pyrimidin-7-yl)-5-(2-(1,3-dihydroisoxazolo[3,4-b]quinolin-7-yl)ethyl)cyclopentane-1,2-diol]	< 1
Nc1ncnc2c1ccn2[C@@H]1C[C@H](CCc2ccc3cc4cn[nH]c4nc3c2)[C@@H](O)[C@H]1O [Compound 1-12, (1S,2R,3S,5R)-3-(2-(1H-pyrazolo[3,4-b]quinolin-7-yl)ethyl)-5-(4-amino-7H-pyrrolo-[2,3-d]pyrimidin-7-yl)cyclopentane-1,2-diol]	1 to 100
CC1(C)CNc2nc3cc(CC[C@H]4C[C@@H](n5ccc6c(N)ncnc65)[C@H](O)[C@@H]4O)ccc3cc21 [Compound 2-3, (1R,2S,3R,5S)-3-(4-amino-7H-pyrrolo[2,3-d]pyrimidin-7-yl)-5-(2-(3,3-dimethyl-2,3-dihydro-1H-pyrrolo[2,3-b]quinolin-7-yl)ethyl)cyclopentane-1,2-diol]	< 1
Nc1ncnc2c1ccn2[C@@H]1C[C@H](CCc2ccc3cc4c(nc3c2)NOCC4)[C@@H](O)[C@H]1O [Compound 1-13, (1R,2S,3R,5S)-3-(4-amino-7H-pyrrolo[2,3-d]pyrimidin-7-yl)-5-(2-(3,4-dihydro-1H-[1,2]oxazino[3,4-b]quinolin-8-yl)ethyl)cyclopentane-1,2-diol]	< 1
C[C@H]1Cc2cc3ccc(CC[C@H]4C[C@@H](n5ccc6c(N)ncnc65)[C@H](O)[C@@H]4O)cc3nc2NO1 [Compound 1-15, (1R,2S,3R,5S)-3-(4-amino-7H-pyrrolo[2,3-d]pyrimidin-7-yl)-5-(2-((S)-3-methyl-3,4-dihydro-1H-[1,2]oxazino[3,4-b]quinolin-8-yl)ethyl)cyclopentane-1,2-diol]	1 to 100
CC1(C)CNc2nc3cc(CC[C@H]4O[C@@H](n5ccc6c(N)ncnc65)[C@H](O)[C@@H]4O)ccc3cc21 [Compound 3-9, (2R,3R,4S,5R)-2-(4-amino-7H-pyrrolo[2,3-d]pyrimidin-7-yl)-5-(2-(3,3-dimethyl-2,3-dihydro-1H-pyrrolo[2,3-b]quinolin-7-yl)ethyl)tetrahydrofuran-3,4-diol]	1 to 100

Continued, values first:

IC50 [nM]	SMILES
< 1	Nc1ncnc2c1ccn2[C@@H]1C[C@H](CCc2ccc3cc4c(nc3c2)N[C@H](C2CC2)C4)[C@@H](O)[C@H]1O [Compound 1-22, (1R,2S,3R,5S)-3-(4-amino-7H-pyrrolo[2,3-d]pyrimidin-7-yl)-5-(2-((S)-2-cyclopropyl-2,3-dihydro-1H-pyrrolo[2,3-b]quinolin-7-yl)ethyl)cyclopentane-1,2-diol]
1 to 100	Nc1ncnc2c1ccn2[C@@H]1O[C@H](CCc2ccc3cc4c(nc3c2)NCC4)[C@@H](O)[C@H]1O [Compound 3-8, (2R,3R,4S,5R)-2-(4-amino-7H-pyrrolo[2,3-d]pyrimidin-7-yl)-5-(2-(2,3-dihydro-1H-pyrrolo[2,3-b]quinolin-7-yl)ethyl)tetrahydrofuran-3,4-diol]
< 1	CC(C)(C)[C@@H]1Cc2cc3ccc(CC[C@H]4C[C@@H](n5ccc6c(N)ncnc65)[C@H](O)[C@@H]4O)cc3nc2N1 [Compound 1-26, (1R,2S,3R,5S)-3-(4-amino-7H-pyrrolo[2,3-d]pyrimidin-7-yl)-5-(2-((S)-2-(tert-butyl)-2,3-dihydro-1H-pyrrolo[2,3-b]quinolin-7-yl)ethyl)cyclopentane-1,2-diol]
1 to 100	Nc1ncnc2c1ccn2[C@@H]1O[C@H](CCc2ccc3cc4cn[nH]c4nc3c2)[C@@H](O)[C@H]1O [Compound 3-12, (2R,3S,4R,5R)-2-(2-(1H-pyrazolo[3,4-b]quinolin-7-yl)ethyl)-5-(4-amino-7H-pyrrolo[2,3-d]pyrimidin-7-yl)tetrahydrofuran-3,4-diol]
< 1	NC1=Nc2cc(CC[C@H]3C[C@@H](n4ccc5c(N)ncnc54)[C@H](O)[C@@H]3O)ccc2[C@@H]2C[C@H]12 (single isomer, unassigned) [Compound 1-10]
< 1	Nc1ncnc2c1ccn2[C@@H]1C[C@H](CCc2ccc3cc4c(nc3c2)NCC4)[C@@H](O)[C@H]1O [Compound 1-7, (1R,2S,3R,5S)-3-(4-amino-7H-pyrrolo[2,3-d]pyrimidin-7-yl)-5-(2-(2,3-dihydro-1H-pyrrolo[2,3-b]quinolin-7-yl)ethyl)cyclopentane-1,2-diol]
1 to 100	Nc1ncnc2c1ccn2[C@@H]1C[C@H](CCc2ccc3cc4c(nc3c2)N[C@H](C2CCC2)CC4)[C@@H](O)[C@H]1O [Compound 1-40, (1R,2S,3R,5S)-3-(4-amino-7H-pyrrolo[2,3-d]pyrimidin-7-yl)-5-(2-((S)-2-cyclobutyl-1,2,3,4-tetrahydrobenzo[b][1,8]naphthyridin-8-yl)ethyl)cyclopentane-1,2-diol]
< 1	NC1=Nc2cc(CC[C@H]3C[C@@H](n4ccc5c(N)ncnc54)[C@H](O)[C@@H]3O)ccc2C2=NCCN12 [Compound 1-8, (1S,2R,3S,5R)-3-(2-(5-amino-2,3-dihydroimidazo[1,2-c]quinazolin-8-yl)ethyl)-5-(4-amino-7H-pyrrolo[2,3-d]pyrimidin-7-yl)cyclopentane-1,2-diol]

Reference: US20220089612A1, “HETEROCYCLIC COMPOUNDS AS PRMT5 INHIBITORS” (ANGEX PHARMACEUTICAL, INC., priority 2017, published 2022)
